This note sets out measurements from patent US20250051344A1, “BIFUNCTIONAL SELECTIVE DEGRADERS OF SMARCA2 AND THERAPEUTIC USES THEREOF” (Nurix Therapeutics, Inc., priority 2023, published 2025).

As a reminder, the Dmax is the largest share of the target that was removed. The low end stands for a partial loss of target, the high end for a fuller loss of target. As usually defined, the DC50 is the concentration at which degradation of the target reaches its halfway point. Lower therefore signals a more potent degrader.

One test addresses T1, SMARCA4 (Homo sapiens, UniProt P51532).
T1 construct: endogenous in cells
The experiment in a line: Cellular degradation assay, SMARCA4 (Table 1). Type of test: cell-based.

Another test has as its target T2, SMARCA2 (Homo sapiens, UniProt P51531).
T2 construct: endogenous in cells
The experiment in a line: SMARCA2 Cellular Degradation Assay (Western blot analysis on Jess platform). Type of test: cell-based. The note with it: for Dmax / DC50: cellular degradation; for Fold Selectivity SMARCA4/2: ratio DC50 SMARCA4 / DC50 SMARCA2. The gist of the method: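 Lysates of cells extracted from tumors, 5 μg total protein per capillary, were probed for SMARCA2 and β-actin by capillary Western on Jess using chemiluminescence and fluorescence detection. SMARCA2 peak area was background-subtracted and normalized to actin, then expressed as % remaining relative to vehicle control.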
For orientation: Immunoblotting shows a protein as a band on a membrane.

SMILES strings stand for the structures.

T2 sequence (P51531 whole entry, species assumed): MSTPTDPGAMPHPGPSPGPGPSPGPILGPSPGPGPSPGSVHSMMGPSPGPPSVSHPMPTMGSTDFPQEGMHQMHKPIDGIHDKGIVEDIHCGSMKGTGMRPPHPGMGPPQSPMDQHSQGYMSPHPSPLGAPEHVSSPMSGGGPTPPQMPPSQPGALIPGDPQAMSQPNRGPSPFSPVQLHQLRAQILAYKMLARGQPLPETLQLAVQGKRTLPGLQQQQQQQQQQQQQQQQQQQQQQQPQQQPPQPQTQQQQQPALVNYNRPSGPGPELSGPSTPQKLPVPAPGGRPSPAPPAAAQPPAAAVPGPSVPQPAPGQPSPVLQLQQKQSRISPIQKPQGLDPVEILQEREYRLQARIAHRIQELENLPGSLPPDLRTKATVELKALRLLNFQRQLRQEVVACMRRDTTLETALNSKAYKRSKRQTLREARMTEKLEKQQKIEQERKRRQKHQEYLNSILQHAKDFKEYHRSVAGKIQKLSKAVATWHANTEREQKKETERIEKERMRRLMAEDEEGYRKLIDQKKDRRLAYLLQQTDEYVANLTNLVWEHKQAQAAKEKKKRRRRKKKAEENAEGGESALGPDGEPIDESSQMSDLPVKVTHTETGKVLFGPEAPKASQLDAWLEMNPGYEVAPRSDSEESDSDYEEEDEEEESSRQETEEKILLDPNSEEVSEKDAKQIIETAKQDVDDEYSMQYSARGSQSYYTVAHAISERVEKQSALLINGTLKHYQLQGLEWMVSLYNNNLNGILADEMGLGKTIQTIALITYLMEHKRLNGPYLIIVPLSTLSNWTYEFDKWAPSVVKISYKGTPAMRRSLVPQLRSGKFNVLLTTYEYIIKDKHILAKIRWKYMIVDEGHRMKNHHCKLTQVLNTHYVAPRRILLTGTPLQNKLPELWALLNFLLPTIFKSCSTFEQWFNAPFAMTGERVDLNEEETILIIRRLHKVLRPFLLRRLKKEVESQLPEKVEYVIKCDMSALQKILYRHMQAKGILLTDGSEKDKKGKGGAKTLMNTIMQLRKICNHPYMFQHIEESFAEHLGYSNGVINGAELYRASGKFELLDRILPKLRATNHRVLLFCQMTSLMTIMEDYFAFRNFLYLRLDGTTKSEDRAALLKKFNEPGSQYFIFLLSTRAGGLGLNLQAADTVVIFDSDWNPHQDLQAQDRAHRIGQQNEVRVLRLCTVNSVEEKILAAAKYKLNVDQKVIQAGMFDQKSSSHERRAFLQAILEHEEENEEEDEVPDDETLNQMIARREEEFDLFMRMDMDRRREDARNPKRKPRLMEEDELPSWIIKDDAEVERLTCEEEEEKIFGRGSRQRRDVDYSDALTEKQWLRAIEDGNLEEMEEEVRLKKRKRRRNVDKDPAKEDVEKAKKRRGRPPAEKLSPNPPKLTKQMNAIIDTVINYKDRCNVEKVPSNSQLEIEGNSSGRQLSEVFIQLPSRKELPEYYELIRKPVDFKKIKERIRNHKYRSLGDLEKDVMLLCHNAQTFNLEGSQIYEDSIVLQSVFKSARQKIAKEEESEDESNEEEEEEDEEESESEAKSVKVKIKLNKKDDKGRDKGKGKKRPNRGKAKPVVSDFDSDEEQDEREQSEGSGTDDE
T1 sequence (P51532 whole entry, species assumed): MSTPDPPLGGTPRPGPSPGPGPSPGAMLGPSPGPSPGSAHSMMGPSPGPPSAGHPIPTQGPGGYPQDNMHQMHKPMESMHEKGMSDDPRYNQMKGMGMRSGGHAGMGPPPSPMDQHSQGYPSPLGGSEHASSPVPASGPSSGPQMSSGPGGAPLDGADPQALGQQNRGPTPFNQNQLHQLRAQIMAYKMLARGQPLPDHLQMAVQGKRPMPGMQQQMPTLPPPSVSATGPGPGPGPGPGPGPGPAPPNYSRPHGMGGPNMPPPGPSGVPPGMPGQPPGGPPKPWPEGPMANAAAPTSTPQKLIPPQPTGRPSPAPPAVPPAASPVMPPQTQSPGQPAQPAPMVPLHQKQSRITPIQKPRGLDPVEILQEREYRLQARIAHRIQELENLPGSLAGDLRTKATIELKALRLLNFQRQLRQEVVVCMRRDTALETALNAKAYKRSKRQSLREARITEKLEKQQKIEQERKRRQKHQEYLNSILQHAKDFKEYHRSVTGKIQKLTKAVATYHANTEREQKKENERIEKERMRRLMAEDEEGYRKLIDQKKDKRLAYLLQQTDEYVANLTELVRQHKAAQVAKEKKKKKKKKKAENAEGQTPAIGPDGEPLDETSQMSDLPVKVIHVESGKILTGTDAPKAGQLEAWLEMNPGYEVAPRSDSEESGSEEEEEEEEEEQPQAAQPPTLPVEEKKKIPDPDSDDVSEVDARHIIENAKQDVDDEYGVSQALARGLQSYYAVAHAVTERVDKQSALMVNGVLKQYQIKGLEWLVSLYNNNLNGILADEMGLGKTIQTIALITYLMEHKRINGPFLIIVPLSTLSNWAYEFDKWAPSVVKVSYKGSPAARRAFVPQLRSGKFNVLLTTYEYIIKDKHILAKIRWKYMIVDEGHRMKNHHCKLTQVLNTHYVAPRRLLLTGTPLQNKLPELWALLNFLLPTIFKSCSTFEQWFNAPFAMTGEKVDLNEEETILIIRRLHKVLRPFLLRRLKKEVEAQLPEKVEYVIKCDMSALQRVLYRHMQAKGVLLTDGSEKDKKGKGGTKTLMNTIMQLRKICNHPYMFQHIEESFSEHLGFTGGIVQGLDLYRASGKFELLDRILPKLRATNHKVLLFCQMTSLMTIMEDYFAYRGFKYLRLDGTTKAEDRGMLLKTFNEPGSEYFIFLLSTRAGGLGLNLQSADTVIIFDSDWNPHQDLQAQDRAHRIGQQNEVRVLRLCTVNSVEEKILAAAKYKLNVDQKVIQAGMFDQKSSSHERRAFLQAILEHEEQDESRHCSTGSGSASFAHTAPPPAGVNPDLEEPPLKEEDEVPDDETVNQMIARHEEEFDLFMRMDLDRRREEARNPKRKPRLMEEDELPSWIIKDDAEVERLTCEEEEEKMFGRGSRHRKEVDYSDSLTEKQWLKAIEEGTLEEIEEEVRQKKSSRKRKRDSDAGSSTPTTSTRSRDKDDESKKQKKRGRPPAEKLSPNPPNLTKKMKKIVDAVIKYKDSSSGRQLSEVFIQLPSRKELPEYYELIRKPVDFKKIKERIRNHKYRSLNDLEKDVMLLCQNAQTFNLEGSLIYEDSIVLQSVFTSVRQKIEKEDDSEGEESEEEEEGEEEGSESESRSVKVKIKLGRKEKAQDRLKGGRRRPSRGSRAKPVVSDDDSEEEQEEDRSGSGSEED

`O=C1CC[C@H](c2ccc(N3CCC(CN4CCN(C(=O)C5(c6ccccc6)CCN(c6cnnc(-c7ccccc7O)c6)CC5)CCC4C(F)(F)F)CC3)cc2)C(=O)N1` (stereo partly drawn) [Example 53, (3R)-3-(4-(4-((4-(1-(6-(2-hydroxyphenyl)pyridazin-4-yl)-4-phenylpiperidine-4-carbonyl)-7-(trifluoromethyl)-1,4-diazepan-1-yl)methyl)piperidin-1-yl)phenyl)piperidine-2,6-dione] displayed a Dmax at SMARCA4 of 9.06%. For the same molecule, on SMARCA2, the Dmax worked out at 47.2% and the “Fold Selectivity SMARCA4/2” value is 1.

For the molecule `O=C1CC[C@H](c2ccc(N3CCC(CCN4CCC(N(C(=O)C5(c6ccccc6)CCN(c6cnnc(-c7ccccc7O)c6)CC5)C5CC5)CC4)CC3)cc2)C(=O)N1` [Example 74, N-cyclopropyl-N-{1-[2-(1-{4-[(3r)-2,6-dioxopiperidin-3-yl]phenyl}piperidin-4-yl)ethyl]piperidin-4-yl}-1-[6-(2-hydroxyphenyl)pyridazin-4-yl]-4-phenylpiperidine-4-carboxamide], on SMARCA4, the DC50 came to 59.3 nM and the Dmax was determined as 69.2%. On SMARCA2, it took 1.88 nM to reach half-maximal degradation (DC50), the Dmax was determined as 94.2% and the “Fold Selectivity SMARCA4/2” value turned out to be 32.

`COc1ccccc1C1(C(=O)N(C)C2CCN(CCC3CCN(c4ccc([C@H]5CCC(=O)NC5=O)c(F)c4)CC3)CC2)CCN(c2cnnc(-c3ccccc3O)c2)CC1` [Example 85, N-{1-[2-(1-{4-[(3R)-2,6-dioxopiperidin-3-yl]-3-fluorophenyl}piperidin-4-yl)ethyl]piperidin-4-yl}-1-[6-(2-hydroxyphenyl)pyridazin-4-yl]-4-(2-methoxyphenyl)-N-methylpiperidine-4-carboxamide] displayed a Dmax on SMARCA4 of 41.9%. Moreover, at SMARCA2, the DC50 was 8.19 nM, the Dmax came out at 90.9% and the “Fold Selectivity SMARCA4/2” value amounted to 1220.

On SMARCA4, `CCCN(C(=O)C1(c2ccccc2)CCN(c2cnnc(-c3ccccc3O)c2)CC1)C1CCN(CCC2CCN(c3ccc([C@H]4CCC(=O)NC4=O)cc3)CC2)CC1` [Example 100, N-{1-[2-(1-{4-[(3R)-2,6-dioxopiperidin-3-yl]phenyl}piperidin-4-yl)ethyl]piperidin-4-yl}-1-[6-(2-hydroxyphenyl)pyridazin-4-yl]-4-phenyl-n-propylpiperidine-4-carboxamide] showed a DC50 of 115 nM and a Dmax of 66.4%. Moreover, on SMARCA2, half-maximal degradation (DC50) was put at 3.4 nM, the Dmax was determined as 92.4% and the “Fold Selectivity SMARCA4/2” value is recorded as 34.

Take `CN(C(=O)C1(OC2CC2)CCN(c2cnnc(-c3ccccc3O)c2)CC1)C1CCN(CC2CCN(c3ccc([C@H]4CCC(=O)NC4=O)cc3)CC2)CC1` [Example 114, (r)-4-cyclopropoxy-n-(1-((1-(4-(2,6-dioxopiperidin-3-yl)phenyl)piperidin-4-yl)methyl)piperidin-4-yl)-1-(6-(2-hydroxyphenyl)pyridazin-4-yl)-n-methylpiperidine-4-carboxamide]: the Dmax at SMARCA4 is 49.9%. Further, at SMARCA2, half-maximal degradation (DC50) was put at 9.94 nM, the Dmax worked out at 78.6% and the “Fold Selectivity SMARCA4/2” value came to 1006.

Take `O=C1CC[C@H](c2ccc(N3CCC(CN4CC5(C4)CN(C(=O)C4(Oc6ccccc6Cl)CCN(c6cnnc(-c7ccccc7O)c6)CC4)C5)CC3)cc2)C(=O)N1` [Example 119, (r)-3-(4-(4-((6-(4-(2-chlorophenoxy)-1-(6-(2-hydroxyphenyl)pyridazin-4-yl)piperidine-4-carbonyl)-2,6-diazaspiro[3.3]heptan-2-yl)methyl)piperidin-1-yl)phenyl)piperidine-2,6-dione]: on SMARCA4, half-maximal degradation (DC50) was put at 20.3 nM and the Dmax was 79.4%. Besides, at SMARCA2, it took 3.52 nM to reach half-maximal degradation (DC50), the maximal degradation (Dmax) amounted to 89.2% and the “Fold Selectivity SMARCA4/2” value stood at 6.

On SMARCA4, `COC1(C(=O)N2CCC3(CC2)CN(CC2CCN(c4ccc([C@H]5CCC(=O)NC5=O)cc4)CC2)C3)CCN(c2cnnc(-c3ccccc3O)c2)CC1` [Example 120, (r)-3-(4-(4-((7-(1-(6-(2-hydroxyphenyl)pyridazin-4-yl)-4-methoxypiperidine-4-carbonyl)-2,7-diazaspiro[3.5]nonan-2-yl)methyl)piperidin-1-yl)phenyl)piperidine-2,6-dione] had a Dmax of 50%. For the same molecule, on SMARCA2, the DC50 stood at 7.6 nM, the Dmax was found to be 78.4% and the “Fold Selectivity SMARCA4/2” value turned out to be 1316.

`Cn1nc(N2CCC(=O)NC2=O)c2cccc(N3CCC(CN4CC5(C4)CN(C(=O)C4(c6ccccc6)CCN(c6cnnc(-c7ccccc7O)c6)CC4)C5)CC3)c21` [Example 123, 1-(7-{4-[(6-{1-[6-(2-hydroxyphenyl)pyridazin-4-yl]-4-phenylpiperidine-4-carbonyl}-2,6-diazaspiro[3.3]heptan-2-yl)methyl]piperidin-1-yl}-1-methyl-1H-indazol-3-yl)-1,3-diazinane-2,4-dione] displayed a Dmax on SMARCA4 of 35%. Also, at SMARCA2, the DC50 was 68.1 nM, the maximal degradation (Dmax) is 66.8% and the “Fold Selectivity SMARCA4/2” value was determined as 147.

As for `CN(C(=O)C1(Oc2ccn(C)n2)CCN(c2cnnc(-c3ccccc3O)c2)CC1)C1CCN(CC2CCN(c3ccc([C@H]4CCC(=O)NC4=O)cc3)CC2)CC1` [Example 125, (r)-n-(1-((1-(4-(2,6-dioxopiperidin-3-yl)phenyl)piperidin-4-yl)methyl)piperidin-4-yl)-1-(6-(2-hydroxyphenyl)pyridazin-4-yl)-n-methyl-4-((1-methyl-1h-pyrazol-3-yl)oxy)piperidine-4-carboxamide], on SMARCA4, it took 36.9 nM to reach half-maximal degradation (DC50) and the Dmax worked out at 62.5%. Further, at SMARCA2, the DC50 was 6.01 nM, the Dmax was 82% and the “Fold Selectivity SMARCA4/2” value was 6.

With `COc1ccccc1C1(C(=O)N(C)C2CCN(CC3CCN(c4ccc([C@H]5CCC(=O)NC5=O)cc4)CC3)CC2)CCN(c2cnnc(-c3ccccc3O)c2)CC1` [Example 133, N-{1-[(1-{4-[(3R)-2,6-dioxopiperidin-3-yl]phenyl}piperidin-4-yl)methyl]piperidin-4-yl}-1-[6-(2-hydroxyphenyl)pyridazin-4-yl]-4-(2-methoxyphenyl)-n-methylpiperidine-4-carboxamide], on SMARCA4, half-maximal degradation (DC50) was put at 20.5 nM and the Dmax was 74.8%. In addition, on SMARCA2, half-maximal degradation (DC50) was put at 2.5 nM, the Dmax was 90.5% and the “Fold Selectivity SMARCA4/2” value is 8.

On SMARCA4, `O=C1CC[C@@H](c2ccc(N3CCC(CN4CCC(NCC5(c6ccccc6)CCN(c6cnnc(-c7ccccc7O)c6)CC5)CC4)CC3)cc2)C(=O)N1` [Example 135, (s)-3-(4-(4-((4-(((1-(6-(2-hydroxyphenyl)pyridazin-4-yl)-4-phenylpiperidin-4-yl)methyl)amino)piperidin-1-yl)methyl)piperidin-1-yl)phenyl)piperidine-2,6-dione] gave a DC50 of 191 nM and a Dmax of 61.9%. At SMARCA2, the 50% degradation concentration (DC50) came to 20.7 nM, the Dmax is 74.2% and the “Fold Selectivity SMARCA4/2” value turned out to be 9.

On SMARCA4, `COc1cccc(C2(C(=O)N(C)C3CCN(CCC4CCN(c5ccc([C@H]6CCC(=O)NC6=O)cc5)CC4)CC3)CCN(c3cnnc(-c4ccccc4O)c3)CC2)c1` [Example 139, N-{1-[2-(1-{4-[(3R)-2,6-dioxopiperidin-3-yl]phenyl}piperidin-4-yl)ethyl]piperidin-4-yl}-1-[6-(2-hydroxyphenyl)pyridazin-4-yl]-4-(3-methoxyphenyl)-N-methylpiperidine-4-carboxamide] yielded a DC50 of 167 nM and a Dmax of 54%. Besides, on SMARCA2, the DC50 came to 4.55 nM, the Dmax came to 89.2% and the “Fold Selectivity SMARCA4/2” value turned out to be 37.

With `CN(C(=O)C1(c2ccncc2)CCN(c2cnnc(-c3ccccc3O)c2)CC1)C1CCN(CCC2CCN(c3ccc([C@H]4CCC(=O)NC4=O)cc3)CC2)CC1` [Example 140, N-{1-[2-(1-{4-[(3R)-2,6-dioxopiperidin-3-yl]phenyl}piperidin-4-yl)ethyl]piperidin-4-yl}-1-[6-(2-hydroxyphenyl)pyridazin-4-yl]-N-methyl-4-(pyridin-4-yl)piperidine-4-carboxamide], the Dmax on SMARCA4 is 31.2%. Moreover, on SMARCA2, it took 3.79 nM to reach half-maximal degradation (DC50), the Dmax stood at 86.9% and the “Fold Selectivity SMARCA4/2” value is reported as 2641.

On SMARCA4, `Cc1cnn(C2(C(=O)N(C)C3CCN(CC4CCN(c5ccc([C@H]6CCC(=O)NC6=O)cc5)CC4)CC3)CCN(c3cnnc(-c4ccccc4O)c3)CC2)c1` [Example 154, N-{1-[(1-{4-[(3R)-2,6-dioxopiperidin-3-yl]phenyl}piperidin-4-yl)methyl]piperidin-4-yl}-1-[6-(2-hydroxyphenyl)pyridazin-4-yl]-N-methyl-4-(4-methyl-1H-pyrazol-1-yl)piperidine-4-carboxamide] registered a DC50 of 22.3 nM and a Dmax of 65.6%. Besides, at SMARCA2, the DC50 came to 2.87 nM, the Dmax worked out at 87.7% and the “Fold Selectivity SMARCA4/2” value stood at 8.

`O=C1CC[C@H](NC(=O)c2ccc(N3CCC(CN4CCC(NC(=O)C5(c6ccccc6)CCN(c6cnnc(-c7ccccc7O)c6)CC5)CC4)CC3)nc2)C(=O)N1` [Example 156, N-[(3S)-2,6-dioxopiperidin-3-yl]-6-{4-[(4-{l-[6-(2-hydroxyphenyl)pyridazin-4-yl]-4-phenylpiperidine-4-amido}piperidin-1-yl)methyl]piperidin-1-yl}pyridine-3-carboxamide]: the Dmax on SMARCA4 was 36%. Also, on SMARCA2, it took 38.5 nM to reach half-maximal degradation (DC50), the Dmax came out at 63.2% and the “Fold Selectivity SMARCA4/2” value amounted to 260.

At SMARCA4, `O=C1CC[C@H](n2ccc3cc(N4CCC(CN5CCC(NC(=O)C6(c7ccccc7)CCN(c7cnnc(-c8ccccc8O)c7)CC6)CC5)CC4)ccc3c2=O)C(=O)N1` [Example 157, N-{1-[(1-{2-[(3S)-2,6-dioxopiperidin-3-yl]-1-oxo-1,2-dihydroisoquinolin-6-yl}piperidin-4-yl)methyl]piperidin-4-yl}-1-[6-(2-hydroxyphenyl)pyridazin-4-yl]-4-phenylpiperidine-4-carboxamide] had a DC50 of 8.12 nM and a Dmax of 82.6%. Further, at SMARCA2, half-maximal degradation (DC50) was put at 1.56 nM, the Dmax is 91.8% and the “Fold Selectivity SMARCA4/2” value worked out at 5.
